From patent US20240109905A1, “4-ALKOXY-6-OXO-PYRIDAZINE DERIVATIVES MODULATING NLRP3” (JANSSEN PHARMACEUTICA NV, priority 2021, published 2024) come the findings set out here.

Structures are written as SMILES.

In one assay the test system is IL-1β. As to the kind of experiment: PBMC assay: IL-1β release after LPS stimulation. The class given is cell-based. Conditions: PBMC; human PBMCs, 30 min compound, 100 ng/ml LPS for 6 hrs, MSD; read-out: IL1β AC50. Put shortly:
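Thawed PBMCs from healthy donors (7.5×10^4 cells/well) were preincubated with serially diluted compound for 30 min at 37 °C, then stimulated with 100 ng/ml LPS (final) for 6 h. IL-1β in the supernatant was measured by MSD immunoassay, and AC50 values were derived from the concentration-response data.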

For the next assay, the system named is TNF. As to the kind of experiment: PBMC assay: TNF cytokine level after LPS stimulation. The class given is cell-based. Conditions: PBMC; human PBMCs, 30 min compound, 100 ng/ml LPS for 6 hrs, MSD. The procedure, abridged:
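Thawed human PBMCs from healthy donors (7.5×10^4 per well, RPMI + 10% FBS) preincubated 30 min at 37° C with 1:3 serially diluted compounds, then stimulated 6 h with 100 ng/ml LPS (final). Supernatant TNF measured by MSD immunoassay; EC50/AC50 derived.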

By AC50 is commonly meant the concentration giving half of the maximal activity seen.

Consider `Cc1nnc(C23CC(NC(=O)Cn4nc(C(C)C)c(OCC(C)C)cc4=O)(C2)C3)o1` [Compound 119, 2-(4-isobutoxy-3-isopropyl-6-oxopyridazin-1(6H)-yl)-N-(3-(5-methyl-1,3,4-oxadiazol-2-yl)bicyclo[1.1.1]pentan-1-yl)acetamide], for which the half-maximal activity concentration (AC50) was 2.52 µM in the assay on IL-1β and above 20 µM in the assay with TNF.

For `Cc1ccn2nc(NC(=O)Cn3nc(C(C)C)c(OCC(C)C)cc3=O)cc2n1` [Compound 120], the values for the AC50 in the assay on IL-1β and with TNF were 2.66 µM and above 20 µM, respectively.

Consider `CC(C)COc1cc(=O)n(CC(=O)NC23CC(N4CCCCC4)(C2)C3)nc1C(C)C` [Compound 121], for which the figures for the AC50 in the assay on IL-1β and with TNF were 2.71 µM and above 20 µM, respectively.

For `CC(C)COc1cc(=O)n(CC(=O)N[C@]23CC[C@@](NC(=O)OC(C)(C)C)(CC2)C3)nc1C(C)C` [Compound 122, tert-butyl ((1r,4r)-4-(2-(4-isobutoxy-3-isopropyl-6-oxopyridazin-1(6H)-yl)acetamido)bicyclo[2.2.1]heptan-1-yl)carbamate], the figures for the AC50 with IL-1β and in the assay on TNF were 2.81 µM and above 20 µM, respectively.

Consider `COc1ccc2nc(NC(=O)Cn3nc(C(C)C)c(OCC(C)C)cc3=O)nn2c1` [Compound 123], for which the AC50 in the assay with IL-1β was 2.91 µM; in the assay on TNF it was above 20 µM.

Turning to `CC(C)COc1cc(=O)n(CC(=O)Nc2nc3ccc(C(F)(F)F)cn3n2)nc1C(C)C` [Compound 124], the AC50 with IL-1β was 3.4 µM; in the assay on TNF, above 20 µM.

As for `CC(C)COc1cc(=O)n(CC(=O)NC23C4C5C2C2C3C4C52C(=O)O)nc1C(C)C` (stereo not drawn) [Compound 125], the results for the AC50 with IL-1β and in the assay with TNF were 3.41 µM and above 20 µM, respectively.

`CC(C)COc1cc(=O)n(CC(=O)Nc2cn3cc(Br)ncc3n2)nc1C(C)C` [Compound 126]: the AC50 in the assay with IL-1β is 3.56 µM; in the assay with TNF it was above 20 µM.

`CC(C)COc1c(C(C)C)nn(CC(=O)Nc2ccc3nncn3n2)c(=O)c1C(C)O` (stereo not drawn) [Compound 127]: the AC50 in the assay on IL-1β worked out at 3.88 µM; in the assay on TNF, 19.4 µM.

For `CC(C)COc1cc(=O)n(CC(=O)Nc2nc3ccccc3o2)nc1C(C)C` [Compound 128], the AC50 was 4.28 µM with IL-1β and above 20 µM in the assay with TNF.

`CC(C)COc1cc(=O)n(CC(=O)Nc2nc3ccc(Cl)cn3n2)nc1C(C)C` [Compound 129]: the AC50 in the assay on IL-1β was 4.7 µM; in the assay with TNF, above 20 µM.

With `Cc1cc(C(F)(F)F)n2nc(NC(=O)Cn3nc(C(C)C)c(OCC(C)C)cc3=O)nc2n1` [Compound 130, 2-(4-isobutoxy-3-isopropyl-6-oxopyridazin-1(6H)-yl)-N-(5-methyl-7-(trifluoromethyl)-[1,2,4]triazolo[1,5-a]pyrimidin-2-yl)acetamide], the figures for the AC50 in the assay on IL-1β and in the assay on TNF were 8.73 µM and above 20 µM, respectively.

As to `CC(C)COc1cc(=O)n(CC(=O)NC23CC(C(=O)O)(C2)C3)nc1C(C)C` [Compound 131, 3-(2-(4-isobutoxy-3-isopropyl-6-oxopyridazin-1(6H)-yl)acetamido)bicyclo[1.1.1]pentane-1-carboxylic acid], the AC50 is 9.63 µM in the assay with IL-1β and above 20 µM in the assay with TNF.

In the case of `CC(C)COc1cc(=O)n(CC(=O)NC23CC(NC(=O)OC(C)(C)C)(C2)C3)nc1C(C)C` [Compound 132], the AC50 in the assay on IL-1β is 9.79 µM; in the assay on TNF, above 20 µM.

For `Cc1ccc2c(c1)nc(NC(=O)Cn1nc(C(C)C)c(OCC(C)C)cc1=O)n2C` [Compound 133], the AC50 in the assay on IL-1β and in the assay with TNF was above 10 µM each time.

As to `CC(C)COc1cc(=O)n(CC(=O)Nc2nc3ccc(Cl)cc3n2C)nc1C(C)C` [Compound 134], the AC50 in the assay with IL-1β and in the assay on TNF was above 10 µM each time.

Turning to `CC(C)COc1cc(=O)n(CC(=O)Nc2nc3ccc(Br)cc3n2C)nc1C(C)C` [Compound 135], the AC50 in the assay with IL-1β and in the assay on TNF was above 10 µM in each case.

Regarding `CC(C)COc1cc(=O)n(CC(=O)Nc2nc3ccc(F)cc3n2C)nc1C(C)C` [Compound 136], the AC50 in the assay on IL-1β and in the assay with TNF was above 10 µM each time.

Take `CC(C)COc1cc(=O)n(CC(=O)Nc2nc3ccc(C#N)cc3o2)nc1C(C)C` [Compound 137]: the AC50 in the assay on IL-1β is 10.2 µM; in the assay with TNF, above 20 µM.

For `CC(C)c1nn(CC(=O)Nc2ccc3nncn3c2)c(=O)c(Cl)c1OCCC(F)(F)F` [Compound 138], the results for the AC50 in the assay on IL-1β and in the assay on TNF were 10.7 µM and above 20 µM, respectively.

Regarding `Cc1cnc(C23CC(NC(=O)Cn4nc(C(C)C)c(OCC(C)C)cc4=O)(C2)C3)o1` [Compound 139, 2-(4-isobutoxy-3-isopropyl-6-oxopyridazin-1(6H)-yl)-N-(3-(5-methyloxazol-2-yl)bicyclo[1.1.1]pentan-1-yl)acetamide], the AC50 in the assay with IL-1β is 10.8 µM; in the assay on TNF it was above 20 µM.

With `CC(C)COc1cc(=O)n(CC(=O)Nc2nc3ncccc3o2)nc1C(C)C` [Compound 140], the AC50 in the assay with IL-1β is 11.8 µM; in the assay with TNF, above 20 µM.

In the case of `CC(C)COc1cc(=O)n(CC(=O)Nc2nc3cc(Cl)ccc3o2)nc1C(C)C` [Compound 141, N-(5-chlorobenzo[d]oxazol-2-yl)-2-(4-isobutoxy-3-isopropyl-6-oxopyridazin-1(6H)-yl)acetamide], the AC50 in the assay on IL-1β is 12.2 µM; in the assay on TNF it was above 20 µM.

Regarding `O=C(Cn1nc(OCC(F)(F)F)c(OCC(F)(F)F)cc1=O)Nc1ccc2nncn2n1` [Compound 142], the AC50 in the assay on IL-1β was 15.7 µM; in the assay with TNF, above 20 µM.

`CC(C)c1nn(CC(=O)Nc2ccc3nncn3n2)c(=O)cc1Oc1ccccc1` [Compound 143]: the values for the AC50 in the assay with IL-1β and with TNF were 18 µM and above 20 µM, respectively.

Take `CC(C)COc1cc(=O)n(CC(=O)Nc2nc3cccnc3o2)nc1C(C)C` [Compound 144]: the concentration at half-maximal activity (AC50) with IL-1β and in the assay with TNF was above 20 µM each time.

Take `Cc1ccc2nc(NC(=O)Cn3nc(C(C)C)c(OCC(C)C)cc3=O)n(C)c2c1` [Compound 145]: the AC50 with IL-1β and in the assay on TNF was above 20 µM in each case.

Regarding `CC(C)COc1cc(=O)n(CC(=O)Nc2nc3ccc(C#N)cc3n2C)nc1C(C)C` [Compound 146], the AC50 with IL-1β and in the assay on TNF was above 20 µM each time.

With `CC(C)COc1cc(=O)n(CC(=O)Nc2nc3ccccc3n2C)nc1C(C)C` [Compound 147], the AC50 with IL-1β and in the assay with TNF was above 20 µM each time.

Regarding `CC(C)COc1cc(=O)n(CC(=O)Nc2nc3cc(C#N)ccc3n2C)nc1C(C)C` [Compound 148], the AC50 with IL-1β and in the assay on TNF was above 20 µM each time.

For `CC(C)COc1cc(=O)n(CC(=O)Nc2nc3cc(F)ccc3n2C)nc1C(C)C` [Compound 149], the half-maximal activity concentration (AC50) in the assay on IL-1β and in the assay with TNF was above 20 µM each time.

On to `CC(C)COc1cc(=O)n(CC(=O)Nc2nc3cc(Cl)ccc3n2C)nc1C(C)C` [Compound 150], for which the AC50 with IL-1β and with TNF was above 20 µM in each case.

On to `CC(C)COc1cc(=O)n(CC(=O)Nc2nc3cc(Br)ccc3n2C)nc1C(C)C` [Compound 151], for which the AC50 in the assay on IL-1β and in the assay with TNF was above 20 µM in each case.

Regarding `Cc1c(OCc2ccccc2)c(C(C)C)nn(CC(=O)Nc2ccc3nncn3c2)c1=O` [Compound 152], the AC50 in the assay with IL-1β and in the assay on TNF was above 20 µM in each case.

Consider `CC(C)COc1cc(=O)n(CC(=O)NC23CCC(NC(=O)OC(C)(C)C)(CC2)CC3)nc1C(C)C` [Compound 153], for which the AC50 with IL-1β and in the assay with TNF was above 20 µM each time.

For `COc1nn(CC(=O)Nc2ccc3nncn3n2)c(=O)cc1OCC(F)(F)F` [Compound 154], the half-maximal activity concentration (AC50) with IL-1β and with TNF was above 20 µM each time.

In the case of `CC(C)COc1c(C(C)C)nn(CC(=O)Nc2ccc3nncn3c2)c(=O)c1C(C)O` (stereo not drawn) [Compound 155], the AC50 with IL-1β and in the assay on TNF was above 20 µM throughout.

Regarding `O=C(Cn1nc(OCC(F)(F)F)c(OCC(F)(F)F)cc1=O)Nc1ccc2nncn2c1` [Compound 156], the AC50 in the assay on IL-1β and in the assay on TNF was above 20 µM in each case.

Regarding `CN(C)c1nn(CCO)c(=O)cc1OCC1CC1` [Compound 157, 5-(cyclopropylmethoxy)-6-(dimethylamino)-2-(2-hydroxyethyl)pyridazin-3(2H)-one], the AC50 with IL-1β and with TNF was above 20 µM throughout.

For `CC(C)COc1cc(=O)n(CCO)nc1N(C)C` [Compound 158], the AC50 in the assay on IL-1β and in the assay on TNF was above 20 µM in each case.

Take `CC(C)c1nn(CC(=O)Nc2ccc3nncn3c2)c(=O)cc1OC1CCNC1` (stereo not drawn) [Compound 159]: the AC50 in the assay with IL-1β and in the assay with TNF was above 20 µM throughout.

With `CC(C)c1nn(CC(=O)Nc2ccc3nncn3c2)c(=O)cc1OCC1CNC1` [Compound 160], the AC50 with IL-1β and in the assay on TNF was above 20 µM throughout.

As to `CC(C)c1nn(CC(=O)Nc2ccc3nncn3c2)c(=O)cc1OC1CNC1` [Compound 161], the AC50 with IL-1β and with TNF was above 20 µM throughout.

With `COc1cc(=O)n(CC(=O)Nc2ccc3nncn3c2)nc1C(C)C` [Compound 162], the AC50 in the assay on IL-1β and in the assay with TNF was above 20 µM each time.

Consider `CC(C)COc1c(C(C)C)nn(CC(=O)Nc2ccc3nncn3c2)c(=O)c1C(F)(F)F` [Compound 163], for which the AC50 in the assay on IL-1β and with TNF was above 20 µM each time.
